These results are taken from patent publication US9072759B2 (priority 2008, dated 2015).

The subject of data set [1] is L. pneumophila strain ATCC 33153. Nature of the data set: microbe, parasite or virus in culture. Type of data set: cell-based. The settings on record: Legionella pneumophila.
Data set [2] deals with L. monocytogenes strain EGD. Nature of the data set: microbe, parasite or virus in culture. Type of data set: cell-based. Particulars: Listeria monocytogenes.
The nature of data set [3]: in vivo. The settings on record: rat.
Data set [4] relates to B. anthracis. Nature of the data set: microbe, parasite or virus in culture. Type of data set: cell-based.
The subject of another data set is B. mallei. Nature of the data set: microbe, parasite or virus in culture. The class given is cell-based.
The nature of data set [5]: in vivo. Particulars: monkey.
The next data set relates to F. tularensis. Nature of the data set: microbe, parasite or virus in culture. The class given is cell-based.
In the next data set the test system is Y. pestis. The data set is described as follows: microbe, parasite or virus in culture. Type of data set: cell-based.
Data set [6] in a line: in vivo. The settings on record: rodents and non human primates.
A short description of a further data set: clinical. The settings on record: in vivo.
For a further data set, the system named is B. pseudomallei. Nature of the data set: microbe, parasite or virus in culture. The class given is cell-based.
The conditions of data set [7]: in vivo.
Data set [8] has as its system B. anthracis. The settings on record: approved or proposed for post-exposure anthrax indications; cited from earlier work.
[9] abbreviates: ATCC33153, pH 6.5, read-out: MIC, L. pneumophila, pH-adjusted broth.
The mark [10] stands for this setting: ATCC33153, pH 7.4, read-out: MIC, L. pneumophila, pH-adjusted broth.
The mark [11] stands for this setting: ATCC33153, read-out: MIC, L. pneumophila.
Where [12] appears, read: read-out: MIC, L. monocytogenes.

The structures appear in SMILES notation. Converted amounts (≈) assume the structure as drawn. Like-named read-outs stand apart in the source and are kept apart here.

For `CC[C@H]1OC(=O)[C@H](C)[C@@H](O[C@H]2C[C@@](C)(OC)[C@@H](O)[C@H](C)O2)[C@H](C)[C@@H](O[C@@H]2O[C@H](C)C[C@H](N(C)C)[C@H]2O)[C@](C)(O)C[C@@H](C)CN(C)[C@H](C)[C@@H](O)[C@]1(C)O` [AZI, Azithromycin], the MIC is 0.016 µg/mL (≈ 0.0214 µM) in data set [1] (ATCC33153); 0.25 µg/mL (≈ 0.334 µM) in data set [1] (setting [9]); around 0.01 µg/mL (≈ 0.0134 µM) in [1] (setting [10]); 0.016 µg/mL (≈ 0.0214 µM) in [1] (setting [11]); 1 µg/mL (≈ 1.34 µM) in data set [2]; 1 µg/mL (≈ 1.34 µM) in data set [2] (setting [12]).

As for `CC[C@H]1OC(=O)[C@@](C)(F)C(=O)[C@H](C)[C@@H](OC2OC(C)CC(N(C)C)C2O)[C@@](C)(OC)C[C@@H](C)C(=O)[C@H](C)[C@H]2N(CCCCn3cc(-c4cccc(N)c4)nn3)C(=O)O[C@]12C` (some centres unmarked) [CEM-101, 11-N-4-(3-aminophenyl)-[1,2,3]triazol-1-yl]-butyl}-5-desosaminyl-3-oxo-2-fluoro-erythronolide A,-11,12-cyclic carbamate], the Kp in “in vivo [3]” is 5; in “in vivo [5]”, 54; in the data set “in vivo [6]”, 17 to 100. The MIC came to 0.004 µg/mL (≈ 0.00473 µM) in [1] (ATCC33153); 0.01 µg/mL (≈ 0.0118 µM) in data set [1] (setting [9]); 0.005 µg/mL (≈ 0.00592 µM) in [1] (setting [10]); 0.004 µg/mL (≈ 0.00473 µM) in data set [1] (setting [11]); 0.004 µg/mL (≈ 0.00473 µM) in data set [2]; 0.0039 µg/mL (≈ 0.00462 µM) in [2] (pH 7.4, read-out: MIC, L. monocytogenes (EDG), pH-adjusted broth). Besides, the MIC in data set [2] (setting [12]) is 0.004 µg/mL (≈ 0.00473 µM). In addition, the “MIC Range” value against B. anthracis [4] (B. anthracis, 30 strains) is below 0.008 to 0.015 µg/mL; against B. mallei (B. mallei, 30 strains), 0.25 to 2 µg/mL; against F. tularensis (F. tularensis, 30 strains), below 0.08 to 4 µg/mL; with Y. pestis (Y. pestis, 30 strains) it was 0.25 to 2 µg/mL; with B. pseudomallei (B. pseudomallei, 30 strains), 16 µg/mL (≈ 18.9 µM). Besides, the MIC50 in the data set on B. anthracis [4] (Bacillus anthracis) is below 0.008 µg/mL; in the data set with B. mallei (Burkholderia mallei) it was 1 µg/mL (≈ 1.18 µM); in the data set on F. tularensis (Francisella tularensis) it was 0.03 µg/mL (≈ 0.0355 µM); against Y. pestis (Yersinia pestis), 1 µg/mL (≈ 1.18 µM); in the data set with B. pseudomallei (Burkholderia pseudomallei) it was 16 µg/mL (≈ 18.9 µM). Also, the MIC90 against B. anthracis [4] (Bacillus anthracis) is below 0.008 µg/mL; against B. mallei (Burkholderia mallei) it was 1 µg/mL (≈ 1.18 µM); with F. tularensis (Francisella tularensis) it was 2 µg/mL (≈ 2.37 µM); in the data set on Y. pestis (Yersinia pestis) it was 2 µg/mL (≈ 2.37 µM); with B. pseudomallei (Burkholderia pseudomallei), 16 µg/mL (≈ 18.9 µM). The molecule further returned an AUC in the data set “clinical” of 40 to 28600 ng·h/mL. Further, the Cmax in “clinical” lay in the range of 22 to 1960 ng/mL. Moreover, the Tmax in the data set “clinical” was in the range of 1.5 to 6 h. Also, the half-life in “clinical” fell in the range of 2.2 to 7.9 h.

Molecule `CC[C@H]1OC(=O)[C@H](C)[C@@H](O[C@H]2C[C@@](C)(OC)[C@@H](O)[C@H](C)O2)[C@H](C)[C@@H](O[C@@H]2O[C@H](C)C[C@H](N(C)C)[C@H]2O)[C@](C)(OC)C[C@@H](C)C(=O)[C@H](C)[C@@H](O)[C@]1(C)O` [CLR, Clarithromycin] returned an MIC in data set [1] (ATCC33153) of 0.007 µg/mL (≈ 0.00936 µM). Besides, the “bioload when the time after the last dose was extended” value in data set [7] is reported as “bioload increases”.

Turning to `CC[C@H]1OC(=O)[C@H](C)C(=O)[C@H](C)[C@@H](O[C@@H]2O[C@H](C)C[C@H](N(C)C)[C@H]2O)[C@](C)(OC)C[C@@H](C)C(=O)[C@H](C)[C@H]2N(CCCCn3cnc(-c4cccnc4)c3)C(=O)O[C@]12C` [TEL, Telithromycin], in data set [1] (ATCC33153), the MIC was determined as 0.007 µg/mL (≈ 0.00862 µM). Also, the “bioload when the time after the last dose was extended” value in data set [7] is “bioload increases”.

Regarding `CC[C@H]1OC(=O)[C@H](C)C(=O)[C@H](C)[C@@H](O[C@@H]2O[C@H](C)C[C@H](N(C)C)[C@H]2O)[C@](C)(OC/C=C/c2cnc3ccccc3c2)C[C@@H](C)C(=O)[C@H](C)[C@H]2NC(=O)O[C@@]21C` [cethromycin], in the data set on B. anthracis [8], the “MIC90 against B. anthracis, comparator antibiotics” value was 0.063 µg/mL (≈ 0.0823 µM).

For the molecule `O=C(O)c1cn(C2CC2)c2cc(N3CCNCC3)c(F)cc2c1=O` [ciprofloxacin], in the data set with B. anthracis [8], the “MIC90 against B. anthracis, comparator antibiotics” value is 0.031 µg/mL (≈ 0.0936 µM).

The term AUC denotes the area under the concentration-time curve, a measure of exposure. For orientation: Cmax means the highest concentration seen after dosing. What is called Tmax is the time from dosing to the highest level. The half-life is the time in which the quantity being followed falls by half.
